Experimental data reported in ChEMBL document CHEMBL1201862, “PubChem BioAssay data set” (2004).
Calls of active or inactive are those of the source.

Legend:
H4 = assay: Luminescence Cell-Based Dose Response HTS to Identify Activators of 5'UTR Stem-Loop Driven Prion Protein mRNA Translation in H4 Neuroglioblastoma Cells. [Related pubchem assays: 1829 (Project Summary), 1814 (Primary HTS)]; assay type: functional; conditions: Homo sapiens
[1] = Luminescence Cell-Based Dose Response to Identify Activators of Luciferase Translation or Activity in H4-C Neuroglioblastoma Cells. [Related pubchem assays: 1829 (Project Summary), 1814 (Primary HTS)]; assay type: functional
[2] = Luminescence Cell-Based Dose Response HTS to Identify Activators of Luciferase Translation or Activity in H4 […] Cells. [Related pubchem assays: 1829 (Project Summary), 1814 (Primary HTS)]; assay type: functional
[3] = Luminescence Cell-Based Dose Confirmation HTS to Identify Activators of 5'UTR Stem-Loop Driven Alpha-Synuclein mRNA Translation in H4 Neuroglioblastoma Cells. [Related pubchem assays: 1829 (Project Summary), 1814 (Primary HTS)]; assay type: functional
[4] = Luminescence Cell-Based Dose Confirmation to Identify Activators of 5'UTR Stem-Loop Driven Alpha-Synuclein mRNA Translation in H4 Neuroglioblastoma Cells. [Related pubchem assays: 1829 (Project Summary), 1814 (Primary HTS)]; assay type: functional
[5] = Luminescence Cell-Based Dose Response to Identify Activators of 5'UTR Stem-Loop Driven Prion Protein mRNA Translation in H4-C Neuroglioblastoma Cells. [Related pubchem assays: 1829 (Project Summary), 1814 (Primary HTS)]; assay type: functional
[6] = target: T1, Tyrosine-protein phosphatase non-receptor type 7 (Homo sapiens, UniProt P35236); assay type: functional
T1 sequence (P35236 whole entry): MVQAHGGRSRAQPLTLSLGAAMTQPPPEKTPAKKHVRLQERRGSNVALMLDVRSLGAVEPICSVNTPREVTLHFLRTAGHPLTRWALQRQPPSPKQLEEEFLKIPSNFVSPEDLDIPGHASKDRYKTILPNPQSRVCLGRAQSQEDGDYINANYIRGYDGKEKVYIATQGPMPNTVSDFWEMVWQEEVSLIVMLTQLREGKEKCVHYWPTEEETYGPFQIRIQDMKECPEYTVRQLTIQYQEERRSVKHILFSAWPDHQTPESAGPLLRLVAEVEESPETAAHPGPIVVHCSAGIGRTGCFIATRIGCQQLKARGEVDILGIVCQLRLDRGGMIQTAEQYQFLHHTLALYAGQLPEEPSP

[7] = target: T2, Tyrosine-protein phosphatase non-receptor type 22 (Homo sapiens, UniProt Q9Y2R2); assay type: functional
T2 sequence (Q9Y2R2 whole entry): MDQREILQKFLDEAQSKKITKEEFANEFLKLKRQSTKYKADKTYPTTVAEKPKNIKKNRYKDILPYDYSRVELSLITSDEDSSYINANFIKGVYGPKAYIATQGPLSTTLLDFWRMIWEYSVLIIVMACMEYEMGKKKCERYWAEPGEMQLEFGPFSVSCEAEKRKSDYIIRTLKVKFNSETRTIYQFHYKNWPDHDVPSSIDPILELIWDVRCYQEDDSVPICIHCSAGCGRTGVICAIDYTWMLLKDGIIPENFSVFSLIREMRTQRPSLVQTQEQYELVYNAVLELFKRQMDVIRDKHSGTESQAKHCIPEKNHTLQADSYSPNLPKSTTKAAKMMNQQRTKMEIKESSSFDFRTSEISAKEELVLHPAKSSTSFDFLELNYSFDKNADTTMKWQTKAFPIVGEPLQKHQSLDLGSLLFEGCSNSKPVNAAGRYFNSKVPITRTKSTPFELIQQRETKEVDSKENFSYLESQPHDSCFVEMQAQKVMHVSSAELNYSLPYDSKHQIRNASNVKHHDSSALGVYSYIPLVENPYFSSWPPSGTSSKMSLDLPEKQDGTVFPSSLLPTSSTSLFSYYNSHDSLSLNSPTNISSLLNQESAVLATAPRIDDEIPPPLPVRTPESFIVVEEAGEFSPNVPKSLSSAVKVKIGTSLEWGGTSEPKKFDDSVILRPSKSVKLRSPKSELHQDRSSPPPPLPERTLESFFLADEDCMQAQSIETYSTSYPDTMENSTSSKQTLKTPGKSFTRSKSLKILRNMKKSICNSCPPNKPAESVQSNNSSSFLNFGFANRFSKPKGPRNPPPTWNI

[8] = target: T2, Tyrosine-protein phosphatase non-receptor type 22; assay type: functional; remark: listed apart in the source
[9] = target: Dual specificity tyrosine-phosphorylation-regulated kinase 1A (Rattus norvegicus, UniProt Q63470); assay type: biochemical, Homo sapiens
[10] = target: T3, Polyadenylate-binding protein 1 (Homo sapiens, UniProt P11940); assay: MLLE binding blockers, Cy5 peptide tracer – biochemical, fluorescence polarization, Cy5-PAM2 peptide, secondary, miRNA deadenylation inhibitor project, dose response (AID 602260); assay type: functional; conditions: read-out: IC50_Mean
T3 sequence (P11940 whole entry, the tested form may be a part): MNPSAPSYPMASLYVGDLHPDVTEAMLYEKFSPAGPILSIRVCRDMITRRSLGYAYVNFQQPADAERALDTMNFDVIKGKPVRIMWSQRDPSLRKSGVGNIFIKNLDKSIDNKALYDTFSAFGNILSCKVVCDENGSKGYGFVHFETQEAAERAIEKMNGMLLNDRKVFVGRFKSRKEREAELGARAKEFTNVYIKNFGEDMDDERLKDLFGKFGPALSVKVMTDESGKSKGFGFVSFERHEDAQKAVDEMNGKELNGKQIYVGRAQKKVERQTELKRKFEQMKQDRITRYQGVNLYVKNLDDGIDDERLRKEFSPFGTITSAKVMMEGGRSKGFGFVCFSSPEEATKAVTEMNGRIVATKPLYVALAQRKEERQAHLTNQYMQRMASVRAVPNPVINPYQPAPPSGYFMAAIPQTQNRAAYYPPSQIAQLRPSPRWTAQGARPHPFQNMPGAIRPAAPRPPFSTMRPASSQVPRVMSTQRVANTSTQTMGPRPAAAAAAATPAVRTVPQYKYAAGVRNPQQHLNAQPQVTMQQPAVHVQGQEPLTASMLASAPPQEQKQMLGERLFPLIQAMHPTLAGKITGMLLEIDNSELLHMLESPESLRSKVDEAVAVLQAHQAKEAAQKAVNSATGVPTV

[11] = target: T3, Polyadenylate-binding protein 1; assay: MLLE domain peptide-binding blockers, IC50 – biochemical, fluorescence polarization, FITC-PAM2 peptide, dose response (AID 602259); assay type: functional; conditions: read-out: IC50_Mean
Vero [12] = assay: viability of Vero cells under compound – cytotoxicity control for flavivirus capping enzyme inhibitors (AID 588742); assay type: functional; conditions: Chlorocebus sabaeus
HeLa = assay: ATP-based viability loss in HeLa cells – cell-based, CellTiter-Glo luminescence, cherry-pick samples, cytotoxicity control for MITF activator project, dose response (AID 540259); assay type: functional; conditions: Homo sapiens
Vero [13] = assay: cells; assay type: functional, cell-based; conditions: Chlorocebus sabaeus
Cytochrome P450 1A2 = target: T4, Cytochrome P450 1A2 (Homo sapiens, UniProt P05177);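 further: PubChem cytochrome P450 panel assay, CYP1A2 panel member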
T4 sequence (P05177 whole entry): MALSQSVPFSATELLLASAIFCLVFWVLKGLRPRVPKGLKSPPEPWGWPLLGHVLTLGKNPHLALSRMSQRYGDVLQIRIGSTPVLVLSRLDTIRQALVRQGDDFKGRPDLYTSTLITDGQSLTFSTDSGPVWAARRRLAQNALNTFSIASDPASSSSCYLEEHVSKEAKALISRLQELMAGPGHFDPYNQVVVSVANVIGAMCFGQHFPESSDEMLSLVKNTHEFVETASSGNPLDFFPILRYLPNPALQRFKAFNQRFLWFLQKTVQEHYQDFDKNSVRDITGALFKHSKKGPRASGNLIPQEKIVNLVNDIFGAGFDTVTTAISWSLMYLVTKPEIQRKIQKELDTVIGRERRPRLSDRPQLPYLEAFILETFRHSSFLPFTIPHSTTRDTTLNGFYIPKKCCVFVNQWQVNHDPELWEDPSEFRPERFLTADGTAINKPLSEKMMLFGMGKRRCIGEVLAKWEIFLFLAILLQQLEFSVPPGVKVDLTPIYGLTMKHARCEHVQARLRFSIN

Cytochrome P450 2D6 = Cytochrome P450 2D6 (Homo sapiens, UniProt P10635);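 further: CYP2D6 member of a cytochrome P450 panel assay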
Sequence of Cytochrome P450 2D6 (P10635 whole entry): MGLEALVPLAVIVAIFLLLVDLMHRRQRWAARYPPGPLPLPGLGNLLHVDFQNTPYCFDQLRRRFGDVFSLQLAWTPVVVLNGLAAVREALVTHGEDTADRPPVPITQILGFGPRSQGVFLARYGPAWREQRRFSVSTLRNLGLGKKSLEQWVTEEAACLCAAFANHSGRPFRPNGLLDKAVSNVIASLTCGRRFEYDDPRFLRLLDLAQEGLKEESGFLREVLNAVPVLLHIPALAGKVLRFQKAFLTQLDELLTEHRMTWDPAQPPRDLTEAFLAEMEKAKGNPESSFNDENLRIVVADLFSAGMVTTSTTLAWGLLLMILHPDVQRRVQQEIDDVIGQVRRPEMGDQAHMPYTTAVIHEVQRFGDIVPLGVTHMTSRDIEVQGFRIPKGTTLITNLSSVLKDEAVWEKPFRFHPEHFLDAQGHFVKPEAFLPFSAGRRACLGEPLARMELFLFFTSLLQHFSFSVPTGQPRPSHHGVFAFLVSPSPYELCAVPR

Cytochrome P450 2C19 = Cytochrome P450 2C19 (Homo sapiens, UniProt P33261); assay: Cytochrome panel assay with activity outcomes. Panel member name: p450-cyp2c19 Compounds with AC50 equal or less than 10 uM are considered active; assay type: functional; conditions: read-out: AC50
Sequence of Cytochrome P450 2C19 (P33261 whole entry): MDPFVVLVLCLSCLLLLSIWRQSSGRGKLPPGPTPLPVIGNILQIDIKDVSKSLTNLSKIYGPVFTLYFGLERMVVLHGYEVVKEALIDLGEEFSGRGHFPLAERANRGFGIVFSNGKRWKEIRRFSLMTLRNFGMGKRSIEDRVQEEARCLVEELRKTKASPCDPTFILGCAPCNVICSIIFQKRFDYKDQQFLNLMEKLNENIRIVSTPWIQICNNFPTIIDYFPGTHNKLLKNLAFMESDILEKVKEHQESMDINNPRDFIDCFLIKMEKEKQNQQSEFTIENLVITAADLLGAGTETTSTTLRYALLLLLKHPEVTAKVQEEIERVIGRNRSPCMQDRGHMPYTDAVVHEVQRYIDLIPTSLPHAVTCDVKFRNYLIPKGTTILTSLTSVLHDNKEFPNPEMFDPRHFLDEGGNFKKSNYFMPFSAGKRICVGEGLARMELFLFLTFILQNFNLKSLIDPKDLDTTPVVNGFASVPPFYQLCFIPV

In the case of `CCCCCOc1ccc(CN2CCOCC2)cc1Cl`, the EC50 (H4) is reported as 35.5 µM (active), the EC50 [1] is reported as 1.05 µM (active) and the EC50 [2] is reported as < 0.1 µM (inconclusive). For the same compound, the EC50 [3] was < 0.1 µM (active), the EC50 [4] was 0.731 µM (active) and the EC50 [5] was 1.3 µM (active). For the same compound, the IC50 [6] was > 79.4 µM (inactive), the IC50 [7] was > 79.4 µM (inactive) and the IC50 [8] was > 79.4 µM (inactive).
For `Fc1ccccc1N=C(S)Nc1cccc2cnccc12`, the AC50 [9] was 5.56 µM (active), the IC50 [10] was > 66 µM (inactive) and the IC50 [11] was > 66 µM (inactive). The CC50 (Vero [12]) was > 40 µM (active).
With `CCCCc1nc2cc(C(=O)N3CCN(c4nc(C)cnc4C)CC3)ccc2o1` the AC50 (HeLa) was 47.3 µM (active).
With `Cc1ccc(-c2nc(CCN3C(=O)c4ccccc4C3=O)cs2)cc1` the IC50 (cells) was 47.1 µM (active) and the IC50 (Vero [13]) was > 25 µM (active).
For `COC(=O)[C@@]1(Cc2ccc(F)cc2)[C@H]2c3cc(C(=O)N(C)C)n(Cc4cc(F)c(F)c(F)c4)c3C[C@H]2CN1C(=O)c1ccccc1`, the AC50 (Cytochrome P450 1A2) was “inconclusive”.
With `COCCCNC(=O)C1CCC(=O)N1Cc1ccccc1Cl` (stereo not given) the AC50 (Cytochrome P450 1A2) was “inconclusive”, the AC50 (Cytochrome P450 2D6) was 25.1 µM (inconclusive) and the AC50 (Cytochrome P450 2C19) was 22.4 µM (inconclusive).
